What all share (format): biochemical
The target of test [1] is mTOR (Homo sapiens, UniProt P42345). Briefly: mTOR enzyme assay (DELFIA format, His6-S6K substrate). The note with it: read-out: mTOR Kinase Median IC50.
Test [2] concerns the target PI3Kα (Homo sapiens, UniProt P42336). Briefly: PI3K-alpha fluorescence polarization assay. The note with it: read-out: PI3Kα Median IC50.
Test [3] deals with PI3Kγ (Homo sapiens, UniProt P48736). In words: PI3K-gamma fluorescence polarization assay. The conditions noted are these: read-out: PI3Kγ Median IC50.
Sequence of PI3Kγ (P48736 whole entry, species assumed): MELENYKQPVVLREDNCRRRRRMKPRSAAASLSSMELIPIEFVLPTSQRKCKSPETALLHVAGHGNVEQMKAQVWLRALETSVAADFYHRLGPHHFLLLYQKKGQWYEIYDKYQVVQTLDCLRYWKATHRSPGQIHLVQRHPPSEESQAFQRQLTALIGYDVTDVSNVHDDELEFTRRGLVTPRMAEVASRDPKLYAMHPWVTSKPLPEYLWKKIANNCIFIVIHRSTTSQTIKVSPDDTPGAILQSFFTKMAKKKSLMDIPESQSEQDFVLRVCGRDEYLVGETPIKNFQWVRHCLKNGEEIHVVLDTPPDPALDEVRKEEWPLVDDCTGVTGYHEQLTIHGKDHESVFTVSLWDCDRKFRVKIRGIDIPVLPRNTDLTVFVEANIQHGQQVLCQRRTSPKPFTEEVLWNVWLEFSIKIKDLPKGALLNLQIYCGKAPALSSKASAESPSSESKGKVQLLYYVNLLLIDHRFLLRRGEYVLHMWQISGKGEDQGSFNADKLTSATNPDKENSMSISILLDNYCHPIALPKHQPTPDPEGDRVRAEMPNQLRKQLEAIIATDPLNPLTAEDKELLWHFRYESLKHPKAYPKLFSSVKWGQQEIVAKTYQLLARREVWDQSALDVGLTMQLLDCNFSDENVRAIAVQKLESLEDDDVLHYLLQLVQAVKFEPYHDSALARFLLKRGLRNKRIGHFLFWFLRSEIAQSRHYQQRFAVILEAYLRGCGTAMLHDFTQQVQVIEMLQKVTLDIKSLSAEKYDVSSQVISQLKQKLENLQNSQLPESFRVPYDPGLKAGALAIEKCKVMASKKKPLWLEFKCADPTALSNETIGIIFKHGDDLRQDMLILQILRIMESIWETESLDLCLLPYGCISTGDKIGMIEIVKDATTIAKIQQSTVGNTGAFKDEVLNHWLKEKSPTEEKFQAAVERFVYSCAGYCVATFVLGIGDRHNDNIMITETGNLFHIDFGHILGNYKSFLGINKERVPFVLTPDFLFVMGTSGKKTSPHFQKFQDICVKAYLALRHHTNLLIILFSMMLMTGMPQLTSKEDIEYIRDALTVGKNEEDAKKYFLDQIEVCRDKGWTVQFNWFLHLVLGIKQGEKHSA

Sequence of PI3Kα (P42336 whole entry, species assumed): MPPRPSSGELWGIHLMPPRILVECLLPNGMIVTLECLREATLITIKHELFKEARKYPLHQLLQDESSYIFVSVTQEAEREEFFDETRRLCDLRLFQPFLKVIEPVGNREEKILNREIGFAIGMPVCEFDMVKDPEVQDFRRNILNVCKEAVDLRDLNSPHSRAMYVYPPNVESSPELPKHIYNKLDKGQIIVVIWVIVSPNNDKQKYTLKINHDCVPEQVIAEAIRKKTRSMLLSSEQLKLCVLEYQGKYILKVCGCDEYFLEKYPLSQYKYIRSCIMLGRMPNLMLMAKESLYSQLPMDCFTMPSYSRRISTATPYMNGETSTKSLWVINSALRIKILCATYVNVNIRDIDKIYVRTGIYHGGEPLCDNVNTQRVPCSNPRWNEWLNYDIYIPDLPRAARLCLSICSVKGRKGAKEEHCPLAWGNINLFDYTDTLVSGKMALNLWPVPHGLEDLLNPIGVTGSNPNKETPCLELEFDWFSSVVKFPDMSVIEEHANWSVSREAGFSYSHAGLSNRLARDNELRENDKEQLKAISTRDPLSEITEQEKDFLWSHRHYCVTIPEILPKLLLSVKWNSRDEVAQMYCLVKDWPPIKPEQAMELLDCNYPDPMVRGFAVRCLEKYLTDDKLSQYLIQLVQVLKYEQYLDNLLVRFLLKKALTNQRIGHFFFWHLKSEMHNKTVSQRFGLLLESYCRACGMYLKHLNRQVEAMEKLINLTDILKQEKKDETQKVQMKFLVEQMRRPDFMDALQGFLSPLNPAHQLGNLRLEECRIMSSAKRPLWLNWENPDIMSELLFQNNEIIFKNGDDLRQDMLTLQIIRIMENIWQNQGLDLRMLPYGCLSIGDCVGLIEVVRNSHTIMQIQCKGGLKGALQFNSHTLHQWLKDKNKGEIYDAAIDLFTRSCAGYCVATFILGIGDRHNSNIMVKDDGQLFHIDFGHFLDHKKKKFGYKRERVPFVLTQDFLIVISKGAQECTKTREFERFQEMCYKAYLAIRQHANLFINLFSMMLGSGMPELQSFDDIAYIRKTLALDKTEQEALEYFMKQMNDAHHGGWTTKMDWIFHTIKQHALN
Sequence of PI3Kα (P27986 whole entry partner, species assumed): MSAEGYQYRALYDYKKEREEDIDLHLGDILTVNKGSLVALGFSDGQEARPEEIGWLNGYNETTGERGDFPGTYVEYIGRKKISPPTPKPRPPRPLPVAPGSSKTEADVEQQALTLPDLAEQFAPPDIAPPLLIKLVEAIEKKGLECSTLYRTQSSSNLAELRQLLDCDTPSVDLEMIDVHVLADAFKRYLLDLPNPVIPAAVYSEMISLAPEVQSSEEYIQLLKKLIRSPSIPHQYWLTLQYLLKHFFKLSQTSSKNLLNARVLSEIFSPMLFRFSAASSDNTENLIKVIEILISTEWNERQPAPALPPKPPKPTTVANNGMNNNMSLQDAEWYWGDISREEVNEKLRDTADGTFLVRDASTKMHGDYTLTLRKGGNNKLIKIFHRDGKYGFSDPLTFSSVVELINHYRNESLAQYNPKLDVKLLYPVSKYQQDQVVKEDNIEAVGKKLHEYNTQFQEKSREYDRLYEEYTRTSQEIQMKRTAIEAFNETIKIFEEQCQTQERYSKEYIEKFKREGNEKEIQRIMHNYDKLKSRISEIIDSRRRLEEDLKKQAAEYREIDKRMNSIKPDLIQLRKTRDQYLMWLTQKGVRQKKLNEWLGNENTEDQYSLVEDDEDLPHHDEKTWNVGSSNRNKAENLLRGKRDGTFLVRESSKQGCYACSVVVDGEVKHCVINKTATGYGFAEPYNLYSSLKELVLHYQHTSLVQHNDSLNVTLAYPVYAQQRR

For `Cn1cc(/C=C2\Oc3cccc(O)c3C2=O)c2c(-c3ccc(S(=O)(=O)N4CCCC4)cc3)ccnc21` [Compound 190, (2Z)-4-hydroxy-2-({1-methyl-4-[4-(pyrrolidin-1-ylsulfonyl)phenyl]-1H-pyrrolo[2,3-b]pyridin-3-yl}methylidene)-1-benzofuran-3(2H)-one], the values for the concentration for half-maximal inhibition (IC50) in test [1], in test [2] and in test [3] were 3.5 nM, 26 nM and 80 nM, respectively.
Taken in the same sequence, the figures for `Cn1cc(/C=C2\Oc3cccc(O)c3C2=O)c2c(-c3ccc(S(=O)(=O)N4CCOCC4)cc3)ccnc21` [Compound 191, (2Z)-4-hydroxy-2-({1-methyl-4-[4-(morpholin-4-ylsulfonyl)phenyl]-1H-pyrrolo[2,3-b]pyridin-3-yl}methylidene)-1-benzofuran-3(2H)-one] were 3 nM, 34 nM and 101 nM.
`CONC(=O)c1ccc(-c2ccnc3c2c(/C=C2\Oc4cccc(O)c4C2=O)cn3C)cc1` [Compound 192, 4-{3-[(Z)-(4-hydroxy-3-oxo-1-benzofuran-2(3H)-ylidene)methyl]-1-methyl-1H-pyrrolo[2,3-b]pyridin-4-yl}-N-methoxybenzamide]: the IC50 (in general, the concentration that inhibits the measured activity by half) in test [1] was found to be 1 nM; in test [2], 26 nM; in test [3], 39 nM.
For `CN(CCO)C(=O)c1ccc(-c2ccnc3c2c(/C=C2\Oc4cccc(O)c4C2=O)cn3C)cc1` [Compound 195, N-(2-hydroxyethyl)-4-{3-[(Z)-(4-hydroxy-3-oxo-1-benzofuran-2(3H)-ylidene)methyl]-1-methyl-1H-pyrrolo[2,3-b]pyridin-4-yl}-N-methylbenzamide] the same measures were 4.3 nM, 140 nM and 234 nM.
Take `CON(C)C(=O)c1ccc(-c2ccnc3c2c(/C=C2\Oc4cccc(O)c4C2=O)cn3C)cc1` [Compound 196, 4-{3-[(Z)-(4-hydroxy-3-oxo-1-benzofuran-2(3H)-ylidene)methyl]-1-methyl-1H-pyrrolo[2,3-b]pyridin-4-yl}-N-methoxy-N-methylbenzamide]: the figures for the IC50 in test [1], in test [2] and in test [3] were 1 nM, 41 nM and 66 nM, respectively.
Taken in the same sequence, the figures for `COCCCN(C)C(=O)C1CCN(c2ccnc3c2c(C=C2Oc4ccc(NC(=O)Nc5cccnc5)cc4C2=O)cn3C)CC1` [Compound 199, N-(3-methoxypropyl)-N-methyl-1-[1-methyl-3-({3-oxo-5-[(pyridin-3-ylcarbamoyl)amino]-1-benzofuran-2(3H)-ylidene}methyl)-1H-pyrrolo[2,3-b]pyridin-4-yl]piperidine-4-carboxamide] were 12.5 nM, 2240 nM and 2990 nM.
Consider `COCCCNC(=O)C1CCN(c2ccnc3c2c(C=C2Oc4ccc(NC(=O)Nc5cccnc5)cc4C2=O)cn3C)CC1` [Compound 200, N-(3-methoxypropyl)-1-[1-methyl-3-({3-oxo-5-[(pyridin-3-ylcarbamoyl)amino]-1-benzofuran-2(3H)-ylidene}methyl)-1H-pyrrolo[2,3-b]pyridin-4-yl]piperidine-4-carboxamide], for which the half-inhibitory concentration (IC50) was 4.8 nM in test [1], above 10000 nM in test [2] and above 10000 nM in test [3].
In the case of `Cn1cc(C=C2Oc3ccc(NC(=O)Nc4cccnc4)cc3C2=O)c2c(N3CCC(C(=O)NCC(N)=O)CC3)ccnc21` [Compound 202, N-(2-amino-2-oxoethyl)-1-[1-methyl-3-({3-oxo-5-[(pyridin-3-ylcarbamoyl)amino]-1-benzofuran-2(3H)-ylidene}methyl)-1H-pyrrolo[2,3-b]pyridin-4-yl]piperidine-4-carboxamide], the IC50 in test [1] was 4 nM; in test [2], 5900 nM; in test [3], above 10000 nM.
For the compound `Cn1cc(C=C2Oc3ccc(NC(=O)Nc4cccnc4)cc3C2=O)c2c(N3CCC(C(=O)NCCN4CCCC4)CC3)ccnc21` [Compound 203, 1-[1-methyl-3-({3-oxo-5-[(pyridin-3-ylcarbamoyl)amino]-1-benzofuran-2(3H)-ylidene}methyl)-1H-pyrrolo[2,3-b]pyridin-4-yl]-N-(2-pyrrolidin-1-ylethyl)piperidine-4-carboxamide], the figures for the 50% inhibitory concentration (IC50) in test [1], in test [2] and in test [3] were 19 nM, above 10000 nM and above 10000 nM, respectively.
Take `Cn1cc(C=C2Oc3ccc(NC(=O)Nc4cccnc4)cc3C2=O)c2c(N3CCC(C(=O)N4CC=CC4)CC3)ccnc21` [Compound 204, 1-[2-({4-[4-(2,5-dihydro-1H-pyrrol-1-ylcarbonyl)piperidin-1-yl]-1-methyl-1H-pyrrolo[2,3-b]pyridin-3-yl}methylidene)-3-oxo-2,3-dihydro-1-benzofuran-5-yl]-3-pyridin-3-ylurea]: the IC50 in test [1] worked out at 10 nM; in test [2], 5620 nM; in test [3], 1730 nM.
Taken in the same sequence, the figures for `CN1CCC(N(C)C(=O)C2CCN(c3ccnc4c3c(C=C3Oc5ccc(NC(=O)Nc6cccnc6)cc5C3=O)cn4C)CC2)C1` (stereo not drawn) [Compound 205, N-methyl-1-[1-methyl-3-({3-oxo-5-[(pyridin-3-ylcarbamoyl)amino]-1-benzofuran-2(3H)-ylidene}methyl)-1H-pyrrolo[2,3-b]pyridin-4-yl]-N-(1-methylpyrrolidin-3-yl)piperidine-4-carboxamide] were 49 nM, above 10000 nM and 9230 nM.
For `CN(C(=O)C1CCN(c2ccnc3c2c(C=C2Oc4ccc(NC(=O)Nc5cccnc5)cc4C2=O)cn3C)CC1)[C@@H]1CCNC1` [Compound 206, N-methyl-1-[1-methyl-3-({3-oxo-5-[(pyridin-3-ylcarbamoyl)amino]-1-benzofuran-2(3H)-ylidene}methyl)-1H-pyrrolo[2,3-b]pyridin-4-yl]-N-[(3R)-pyrrolidin-3-yl]piperidine-4-carboxamide] the same measures were 47 nM, above 10000 nM and above 10000 nM.
For `Cn1cc(C=C2Oc3ccc(NC(=O)Nc4cccnc4)cc3C2=O)c2c(N3CCC(C(=O)N[C@@H]4CCNC4)CC3)ccnc21` [Compound 207, 1-[1-methyl-3-({3-oxo-5-[(pyridin-3-ylcarbamoyl)amino]-1-benzofuran-2(3H)-ylidene}methyl)-1H-pyrrolo[2,3-b]pyridin-4-yl]-N-[(3R)-pyrrolidin-3-yl]piperidine-4-carboxamide] the same measures were 16 nM, at least 10000 nM and 4290 nM.
As to `CN(C(=O)C1CCN(c2ccnc3c2c(C=C2Oc4ccc(NC(=O)Nc5cccnc5)cc4C2=O)cn3C)CC1)[C@H]1CCNC1` [Compound 208, N-methyl-1-[1-methyl-3-({3-oxo-5-[(pyridin-3-ylcarbamoyl)amino]-1-benzofuran-2(3H)-ylidene}methyl)-H-pyrrolo[2,3-b]pyridin-4-yl]-N-[(3S)-pyrrolidin-3-yl]piperidine-4-carboxamide], the concentration for half-maximal inhibition (IC50) was 50 nM in test [1], above 10000 nM in test [2] and above 10000 nM in test [3].
Consider `Cn1cc(C=C2Oc3ccc(NC(=O)Nc4cccnc4)cc3C2=O)c2c(N3CCC(C(=O)N[C@H]4CCNC4)CC3)ccnc21` [Compound 209, 1-[1-methyl-3-({3-oxo-5-[(pyridin-3-ylcarbamoyl)amino]-1-benzofuran-2(3H)-ylidene}methyl)-1H-pyrrolo[2,3-b]pyridin-4-yl]-N-[(3S)-pyrrolidin-3-yl]piperidine-4-carboxamide], for which the half-maximal inhibitory concentration (IC50) in test [1] is 26.5 nM; in test [2] it was above 10000 nM; in test [3] it was 4160 nM.
Taken in the same sequence, the figures for `CN(C)C1CCN(C(=O)C2CCN(c3ccnc4c3c(C=C3Oc5ccc(NC(=O)Nc6cccnc6)cc5C3=O)cn4C)CC2)C1` (stereo not drawn) [Compound 210, 1-(2-{[4-(4-{[3-(dimethylamino)pyrrolidin-1-yl]carbonyl}piperidin-1-yl)-1-methyl-1H-pyrrolo[2,3-b]pyridin-3-yl]methylidene}-3-oxo-2,3-dihydro-1-benzofuran-5-yl)-3-pyridin-3-ylurea] were 11 nM, above 10000 nM and 2180 nM.
For `CN(C(=O)C1CCN(c2ccnc3c2c(C=C2Oc4ccc(NC(=O)Nc5cccnc5)cc4C2=O)cn3C)CC1)C1CCS(=O)(=O)C1` (stereo not drawn) [Compound 211, N-(1,1-dioxidotetrahydrothiophen-3-yl)-N-methyl-1-[1-methyl-3-({3-oxo-5-[(pyridin-3-ylcarbamoyl)amino]-1-benzofuran-2(3H)-ylidene}methyl)-1H-pyrrolo[2,3-b]pyridin-4-yl]piperidine-4-carboxamide] the same measures were 11.5 nM, above 10000 nM and above 10000 nM.
Taken in the same sequence, the figures for `Cn1cc(C=C2Oc3ccc(NC(=O)Nc4cccnc4)cc3C2=O)c2c(N3CCC(C(=O)NC4CCS(=O)(=O)C4)CC3)ccnc21` (stereo not drawn) [Compound 212, N-(1,1-dioxidotetrahydrothiophen-3-yl)-1-[1-methyl-3-({3-oxo-5-[(pyridin-3-ylcarbamoyl)amino]-1-benzofuran-2(3H)-ylidene}methyl)-1H-pyrrolo[2,3-b]pyridin-4-yl]piperidine-4-carboxamide] were 5.7 nM, 7450 nM and 5230 nM.
In the case of `CN(C(=O)C1CCN(c2ccnc3c2c(C=C2Oc4ccc(NC(=O)Nc5cccnc5)cc4C2=O)cn3C)CC1)C1CCOCC1` [Compound 213, N-methyl-1-[1-methyl-3-({3-oxo-5-[(pyridin-3-ylcarbamoyl)amino]-1-benzofuran-2(3H)-ylidene}methyl)-1H-pyrrolo[2,3-b]pyridin-4-yl]-N-(tetrahydro-2H-pyran-4-yl)piperidine-4-carboxamide], the IC50 was determined as 18.9 nM in test [1], 8360 nM in test [2] and 7220 nM in test [3].
Take `Cn1cc(C=C2Oc3ccc(NC(=O)Nc4cccnc4)cc3C2=O)c2c(N3CCC(C(=O)NC4CCOCC4)CC3)ccnc21` [Compound 214, 1-[1-methyl-3-({3-oxo-5-[(pyridin-3-ylcarbamoyl)amino]-1-benzofuran-2(3H)-ylidene}methyl)-1H-pyrrolo[2,3-b]pyridin-4-yl]-N-(tetrahydro-2H-pyran-4-yl)piperidine-4-carboxamide]: the IC50 in test [1] was 10.2 nM; in test [2] it was above 10000 nM; in test [3] it was above 10000 nM.

The record behind these values is US20090298820A1, “3-SUBSTITUTED-1H-PYRROLO[2,3-B]PYRIDINE AND 3-SUBSTITUTED-1H-PYRROLO[3,2-B]PYRIDINE COMPOUNDS, THEIR USE AS MTOR KINASE AND PI3 KINASE INHIBITORS, AND THEIR SYNTHESES” (Wyeth, priority 2008, published 2009).
